# From patent US10464952B2, “Beta-lactamase inhibitors” (priority 2015, dated 2019)
# Experiments:
# [1] = molecular target: T1, SHV-5 (Klebsiella pneumoniae, UniProt P0A3M1); test: β-lactamase enzyme inhibition assay, SHV-5 (cefotaxime substrate); format: biochemical
# T1 construct: made in house; host or cells: E. coli BL21(DE3)
# Protocol: (§1) For SHV-5, KPC-2, p99AmpC and OXA-4813-lactamases, E. coli BL21(DE3) bacterial cells carrying expression plasmids (expressed as native untagged proteins) for the individual β-lactamases were grown in 1L of Superbroth (Teknova Inc. Hollister, Calif.) supplemented with 100 μg/ml kanamycin selection and 1×5052 (0.5% glycerol, 0.05% glucose and 0.2% α-lactose) at 35° C. for 18-20 hours. Cells were harvested by centrifugation (4,000 ×g, 4° C., 20 min), re-suspended in 50 ml of 10 mM HEPES pH 7.5 (1/20 of the initial volume). The cells were lysed by sonication (5 pulses of 45 seconds) at 45 Won ice. The lysates were clarified by centrifugation at 10,000 ×g for 40 minutes at 4° C. Samples were diluted 5-fold in 50 mM sodium acetate pH 5.0, stored overnight at 4° C., after which they were centrifuged at 10,000 ×g for 30 minutes to clarify, and filtered through 0.45 μm filters. The samples were loaded onto a 5 ml Capto S sepharose cation exchange column (GE Healthcare) pre-equilibrated with 50 mM sodium acetate pH 5.0. The column was washed with 5 column volumes of 50 mM sodium acetate pH 5.0 to wash out unbound protein and a linear gradient of NaCl (0 to 500 mM) was used to elute the protein (over 16 CV) from the column. Fractions were assayed for β-lactamase activity using Centa (Calbiochem, Gibbstown, N.J.) or Nitrocefin (EMD Millipore chemicals, Darmstadt, Germany) as a reporter β-lactamase substrate for activity in the isolated fractions. Active fractions were pooled, concentrated and further purified by gel filtration chromatography on a Superdex 75 prep grade gel filtration column (GE Healthcare, Piscataway, N.J.) pre -equilibrated in 50 mM Hepes pH 7.5, 150 mM NaCl. Active fractions were pooled, concentrated, and quantitated by BCA protein determination (ThermoScientific, Rockford, Ill.), dialyzed into PBS and frozen at […] in 20% glycerol until use.
# (§2) An equal volume of diluted enzyme stock was added, and the plates were incubated at 37° C. for 15 min. Nitrocefin was used as substrate for p99 AmpC, VIM-2 and OXA-48 and dispensed into each well at a final concentration of 100 μM. Absorbance at 486 nm was immediately monitored for 10 min using a Biotek Powerwave XS2 microplate spectrophotometer using the GEN5 software package (Biotek Instruments, Winooski Vt.). In an analogous fashion, imipenem was used as substrate for KPC-2 and Cefotaxime was used for SHV-5, while changes in absorbance upon hydrolysis of the β-lactam ring were monitored at 300 nm and 260 nm respectively in UV-transparent 96-well microtiter assay plates. Maximum rates of hydrolysis were compared to those in control wells (without inhibitors), and percentages of enzyme inhibition were calculated for each concentration of inhibitor. The concentration of inhibitor needed to reduce the initial rate of hydrolysis of substrate by 50% (IC50) was calculated as the residual activity of β-lactamase at 486 nm using GraFit version 7 kinetics software package (Erithacus Software, Surrey, UK).
# (§3) Using the methodology described above, examples of the current invention were evaluated for their ability to inhibit β-lactamase enzymes from all four Ambler classifications (A through D). […] NT=Not tested.
# [2] = system: E. coli expressing the Class A Extended Spectrum Beta-Lactamase (ESBL) CTX-M-15; test: Broth microdilution MIC assay, potentiation of ceftazidime; format: cell-based; settings: Fixed CAZ 4 μg/mL; CAMHB, 16-20 hours at 37° C.
# Description: (§4) To determine the ability of test compounds to potentiate the inhibition of the growth of bacterial strains that produce beta-lactamase enzymes, classic cell based broth microdilution MIC assays were employed. Six bacteria strains producing beta-lactamase enzymes were used: E. coli expressing the Class A Extended Spectrum Beta-Lactamase (ESBL) CTX-M-15, E. cloacae expressing the Class C P99, K. pneumoniae expressing the Class A carbapenemase KPC-3, P.aeruginosa expressing the Class B carbapenemase VIM-2, K. pneumoniae expressing the class A carbapenemase KPC-2 and the class B carbapenemase VIM-4, and K. pneumoniae producing the Class D carbapenemase OXA-48. The assay was conducted in Cation Adjusted Mueller Hinton Broth (CAMHB, BD #212322, BD Diagnostic Systems, Sparks, Md.). Bacteria strains were grown for 3-5 hours in CAMHB broth. Test compounds were added to a microtiter plate in 2-fold serial dilutions in CAMHB in a final concentration range of 32 μg/mL to 0.015 μg/mL. An overlay of CAMHB containing a Beta-lactam was added to the compounds at a final static concentration of 4 μg/mL. […] In addition to the titration of test compounds the MICs of a panel of control beta-lactams is also tested to ensure the strains are behaving consistently from test to test. Once the test compound and antibiotics are added the plates can be inoculated according to CLSI broth microdilution method. After inoculation, the plates are incubated for 16-20 hours at 37° C., then the Minimal Inhibitory Concentration (MIC) of the test compound is determined visually.
# (§5) Using the methodology described above, examples of the current invention were evaluated for their ability to inhibit the growth of β-lactamase-producing bacteria in the presence of a β-lactam antibiotic.
# (§6) Representative results are shown in Table 3 where A represents an MIC of the fixed β-lactam antibiotic in the presence of >32 μg/mL of a β-lactamase inhibitor of exemplary compounds, B represents the MIC in the presence of between 8 and 32 μg/mL of a β-lactamase inhibitor of exemplary compounds, and C represents the MIC in the presence of ≤4 μg/mL of a β-lactamase inhibitor of exemplary compounds. NT=Not Tested.
# [3] = system: E. cloacae expressing the Class C P99; test: as above; format: cell-based; settings: Fixed CAZ 4 μg/mL; CAMHB, 16-20 hours at 37° C.
# Description: as §4, §5, §6
# [4] = system: K. pneumoniae expressing the Class A carbapenemase KPC-3; test: Broth microdilution MIC assay, potentiation of meropenem; format: cell-based; settings: Fixed Mero 4 μg/mL; CAMHB, 16-20 hours at 37° C.
# Description: as §4, §5
# [5] = system: K. pneumoniae producing the Class D carbapenemase OXA-48; test: as above; format: cell-based; settings: Fixed Mero 4 μg/mL; CAMHB, 16-20 hours at 37° C.
# Description: as §4, §5
# [6] = molecular target: T2, KPC-2 (Klebsiella pneumoniae, UniProt Q9F663); test: β-lactamase enzyme inhibition assay, KPC-2 (imipenem substrate); format: biochemical
# T2 construct: made in house; host or cells: E. coli BL21(DE3)
# Protocol: as §1, §2, §3
# [7] = molecular target: T3, OXA-48 (Klebsiella pneumoniae, UniProt Q6XEC0); test: β-lactamase enzyme inhibition assay, OXA-48 (nitrocefin substrate); format: biochemical
# T3 construct: made in house; host or cells: E. coli BL21(DE3)
# Protocol: as §1, §2, §3
# [8] = molecular target: T4, p99 AmpC (Enterobacter cloacae, UniProt P05364); test: β-lactamase enzyme inhibition assay, p99 AmpC (nitrocefin substrate); format: biochemical
# T4 construct: made in house; host or cells: E. coli BL21(DE3)
# Protocol: as §1, §2, §3
# [9] = system: K. pneumoniae expressing the class A carbapenemase KPC-2 and the class B carbapenemase VIM-4; test: Broth microdilution MIC assay, potentiation of meropenem; format: cell-based; settings: Fixed Mero 4 μg/mL; CAMHB, 16-20 hours at 37° C.
# Description: as §4, §5, §6
# [10] = system: P.aeruginosa expressing the Class B carbapenemase VIM-2; test: as above; format: cell-based; settings: Fixed Mero 4 μg/mL; CAMHB, 16-20 hours at 37° C.
# Description: as §4, §5, §6
# [11] = molecular target: T5, VIM-2 metallo β-lactamase (Pseudomonas aeruginosa, UniProt Q9K2N0); test: β-lactamase enzyme inhibition assay, VIM-2 (nitrocefin substrate); format: biochemical; settings: 15 min preincubation at 37° C.; nitrocefin 100 μM, 486 nm; read-out: IC50 VIM-2 (Class B)
# T5 construct: made in house; host or cells: E. coli BL21(DE3)
# Protocol: For VIM-2 metallo β-lactamase, the procedure was identical with the following exceptions, first the protein was not pH adjusted to pH 5 with 50 mM sodium acetate. Second, the chromatography step was changed to a 5 ml Q sepharose anion exchange column pre-equilibrated with 50 mM Hepes pH 7.5, and elution of the protein was achieved by a linear gradient of NaCl (0-600 mM). Finally, the VIM-2 purification required a second run (3rd step) on the Q sepharose anion exchange column to achieve acceptable purity (>90%).
# as §2, §3
# T4 sequence (P05364 21-381): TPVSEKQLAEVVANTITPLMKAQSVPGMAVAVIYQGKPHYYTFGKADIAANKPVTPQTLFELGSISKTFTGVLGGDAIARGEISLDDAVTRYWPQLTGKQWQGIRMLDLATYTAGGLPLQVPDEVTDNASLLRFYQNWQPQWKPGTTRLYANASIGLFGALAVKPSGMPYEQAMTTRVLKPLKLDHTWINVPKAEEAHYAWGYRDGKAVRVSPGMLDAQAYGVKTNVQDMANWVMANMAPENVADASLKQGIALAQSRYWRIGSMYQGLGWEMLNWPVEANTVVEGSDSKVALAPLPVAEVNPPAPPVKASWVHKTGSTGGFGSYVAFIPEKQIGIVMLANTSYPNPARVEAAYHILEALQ
# T1 sequence (P0A3M1 22-286): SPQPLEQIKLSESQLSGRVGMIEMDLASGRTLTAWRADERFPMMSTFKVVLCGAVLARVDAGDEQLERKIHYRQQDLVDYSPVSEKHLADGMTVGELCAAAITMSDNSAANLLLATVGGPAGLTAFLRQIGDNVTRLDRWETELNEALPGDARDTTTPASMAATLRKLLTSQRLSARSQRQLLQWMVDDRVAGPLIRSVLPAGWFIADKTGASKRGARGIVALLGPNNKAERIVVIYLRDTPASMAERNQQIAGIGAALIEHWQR
# T3 sequence (Q6XEC0 23-265 limits assumed): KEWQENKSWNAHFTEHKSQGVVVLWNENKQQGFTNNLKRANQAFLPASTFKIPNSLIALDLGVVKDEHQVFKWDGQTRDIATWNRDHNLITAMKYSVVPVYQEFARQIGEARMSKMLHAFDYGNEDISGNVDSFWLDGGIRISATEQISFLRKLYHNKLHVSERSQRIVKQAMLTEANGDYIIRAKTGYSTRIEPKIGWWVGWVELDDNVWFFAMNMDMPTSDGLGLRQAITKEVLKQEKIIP
# T2 sequence (Q9F663 25-293 limits assumed): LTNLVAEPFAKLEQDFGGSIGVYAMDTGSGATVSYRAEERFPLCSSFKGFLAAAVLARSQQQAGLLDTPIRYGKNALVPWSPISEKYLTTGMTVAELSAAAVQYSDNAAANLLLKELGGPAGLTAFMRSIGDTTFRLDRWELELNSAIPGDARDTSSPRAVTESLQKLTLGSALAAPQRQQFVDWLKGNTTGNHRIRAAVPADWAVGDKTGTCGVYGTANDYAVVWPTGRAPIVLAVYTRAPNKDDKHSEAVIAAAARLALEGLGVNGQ
compound,measurement,setting,value
"CCC(F)(F)C(=O)N[C@H]1Cc2cccc(C(=O)O)c2OB1O [Example 1, (R)-3-(2,2-difluorobutanamido)-2-hydroxy-3,4-dihydro-2H-benzo [e] [1,2] oxaborinine-8-carboxylic acid]",IC50,[1],< 100 nM
same,"MIC (μg/mL) of exemplary compounds in presence of fixed β-lactams, E. coli ESBL4 CTX-M-15",[2],C (C represents the MIC in the presence of ≤4 μg/mL of a β-lactamase inhibitor)
same,"MIC (μg/mL) of exemplary compounds in presence of fixed β-lactams, E. cl. 144200 p99 AmpC",[3],C (C represents the MIC in the presence of ≤4 μg/mL of a β-lactamase inhibitor)
same,"MIC (μg/mL) of exemplary compounds in presence of fixed β-lactams, K. P. 156319 KPC-3",[4],B (B represents the MIC in the presence of between 8 and 32 μg/mL of a β-lactamase inhibitor)
same,"MIC (μg/mL) of exemplary compounds in presence of fixed β-lactams, K. P. 11978 OXA-48",[5],C (C represents the MIC in the presence of ≤4 μg/mL of a β-lactamase inhibitor)
same,IC50,[6],100 to 1000 nM
same,IC50,[7],100 to 1000 nM
same,IC50,[8],< 100 nM
same,"MIC (μg/mL) of exemplary compounds in presence of fixed β-lactams, K.P. A-1797 KPC-2 VIM-4",[9],B (B represents the MIC in the presence of between 8 and 32 μg/mL of a β-lactamase inhibitor)
same,"MIC (μg/mL) of exemplary compounds in presence of fixed β-lactams, P. aerug. 2775 VIM-2",[10],C (C represents the MIC in the presence of ≤4 μg/mL of a β-lactamase inhibitor)
same,IC50,[11],1000 to 10000 nM
